Measured values: patent US20220249592A1, “MUSCLE QUALITY IMPROVEMENT AGENT” (AJINOMOTO CO., INC., priority 2019, published 2022)
*1 amine or outer side, *2 acyl side, *3 side chain or, on linkers, in order; H or OH if unused. Where a SMILES comes first, the peptide text is derived from it. γGlu = O=C(O)[C@H](CCC(=O)[*:2])N[*:1]

How the values were obtained:
[1] = test system: mouse-derived muscle cell line C2C12; experiment: Muscle insulin signal (phosphorylated Akt/total Akt phosphorylation index) in C2C12 myotube cells exposed to palmitic acid (FFA); format: cell-based; details: for insulin signal that declined due to FFA: 500 μM
Procedure: Muscle anabolic signal was monitored by insulin signal, and the action of γ-glutamyl peptide on the decline of insulin signal was evaluated. As the γ-glutamyl peptide, the actions of γ-L-glutamyl-L-valine (γEV), γ-L-glutamyl-L-cysteine (γEC), and γ-L-glutamyl-L-valylglycine (γEVG) were evaluated.
The evaluation was performed using an evaluation system in which exposure of the mouse-derived muscle cell line C2C12 to saturated fatty acid results in a decline in insulin signal, as described below.
Using mouse C3H skeletal muscle myoblast cell line (C2C12 cell) (DS Pharma Biomedical Co., Ltd.), the evaluation was performed.
Induction of differentiation into myotube cells (Myotubes) was performed using cells with myoblast passage number of 12 to 18. Myoblasts were seeded in a 12-well (diameter=3 cm) plate at 0.3×10^5 to 0.5×10^5 cells/well. After confirmation that the cell proliferation state reached 90% confluent, the medium was replaced with DMEM supplemented with 2 (w/v) % horse serum (HS) and 1 (w/v) % penicillin-streptomycin-glutamine (2 (w/v) % HS, 1 (w/v) % P/S, 1 (w/v) % Gln/DMEM), and differentiation into myotube cells (Myotubes) was induced. After confirmation of differentiation into myotube cells (Myotubes), a muscle insulin signal evaluation system was constructed, and the action of each of γEV, γEC, and γEVG was evaluated using the constructed evaluation system.
The myotube cells (Myotubes) were cultured overnight (17 hr to 24 hr) at 37° C. in a 0.5 mM palmitic acid (FFA)/0.5 (w/v) % albumin (BSA)/DMEM culture medium in the presence of 5 (v/v) % carbon dioxide.
After culturing overnight, the cells were preincubated for about 2 hr in DMEM (BSA/FFA free), stimulated by incubation (15 min to 20 min) with 100 nM insulin, and the myotube cells were collected (each n=1 to 2). From the collected cells, proteins were extracted with RIPA (Radio-Immunoprecipitation Assay) buffer (Cell Signaling Technologies Inc.), adjusted to a final protein concentration of 0.5 mg/mL, and used as samples.
The expression levels of phosphorylated Akt (pAkt) (Ser473) (#9271S; Cell Signaling Technologies Inc.), and total Akt (#9272S; Cell Signaling Technologies Inc.) in the above-mentioned sample were quantified by the Western blotting (WB) method. The expression level of each protein was quantified using Western blot-chemiluminescent imaging system (Fusion FX) (Vilber-Lourmat Inc.).
Each γ-glutamyl peptide was added simultaneously with FFA, and the muscle quality-improving effect was examined with the recovery of the muscle insulin signal as an index. The final concentration of γEV was adjusted to 100 μM or 300 μM, and the final concentrations of γEC and […] were adjusted to 500 μM. As a positive control, an antioxidative active substance N-acetylcysteine (NAC) 5 mM was used.
From the measurement results of the expression levels of phosphorylated Akt (Ser473) and total Akt, the ratio of phosphorylated Akt and total Akt with insulin stimulation to the ratio of phosphorylated Akt and total Akt without insulin stimulation [(pAkt/Total Akt) Insulin+]/[(pAkt/Total Akt) Insulin-] was determined and shown in FIGS. 1 and 2 as the phosphorylation index (stimulation index). In the Figures, the average values of the calculated phosphorylation indices are shown in bar graphs. The symbols (●, ▪, ▴, ▾, □, Δ, ∇) in the Figures indicate the calculated values of the phosphorylation index obtained for each sample.

[2] = test system: C57BL/6J mice; experiment: Grip strength (muscle strength) of mice under motility limitation; format: in vivo, mouse; details: 0.2 wt % in feed, narrow cage, 28 days; vs motility limitation+lard ingestion group; FIG. 8
From the text: (§1) Using C57BL/6J mice, the effect of ingestion of γ-glutamyl peptide on the changes in muscle quality and muscle function induced by narrowing the area of the cage used for rearing to limit exercise was investigated.
C57BL/6J mice were grouped into 3 groups shown in Table 2 such that the body weight, grip strength, and lean body weight would be uniform, and one mouse was housed per cage and reared. As cages for rearing mice, a wide cage (width 220 mm×length 320 mm×height 165 mm) and a narrow cage (width 110 mm×length 160 mm×height 130 mm) were used. In addition, as an experimental diet, a diet containing 20 wt % casein and 7 wt % lard or a diet containing 20 wt % casein, 7 wt % lard, and 0.2 wt % γ-glutamyl valine (γEV) was supplied.
After rearing for 28 days under the above-mentioned conditions, the grip strength of each mouse was measured and the muscle strength was evaluated.
The grip strength of the mouse was measured using a grip strength meter for small animals (“Chatillon”, Columbus Instruments). […] The aforementioned grip strength was consecutively measured five times, and the average value was calculated and used as the grip strength value of each individual. […]

[3] = test system: Sprague-Dawley (SD) male rats; experiment: Walking function (stride of walking, length and width) in rats fed a high-fat diet; format: in vivo, rat; details: 0.2 wt % in 30 wt % fat feed plus exercise, 5th week; widening of width and narrowing of length; FIG. 4
Procedure: (§2) Furthermore, the exercise groups (exercise group and exercise+γEV group) were made to perform exercise once a week under the exercise load conditions shown below.
(§3) At the 5th week of feeding the high-fat diet, the exercise function (walking function) was evaluated as follows. At the 6th week of feeding the high-fat diet, an autopsy was performed, and the muscle (tibialis anterior muscle) weight was measured. As described below, the muscle insulin sensitivity was evaluated, the fatty acid composition in muscle diacylglycerol was analyzed, and the muscle function was evaluated.
The walking function was evaluated by walking the rat without an anesthesia and observing the state of walking. India ink was applied to the plantar part of the both legs of the rat, and the rat was made to walk through a cylindrical tunnel with Japanese writing paper laid therein and the stride of walking (width and length) was measured based on the trace of the right leg and the left leg after walking, and the walking function was evaluated.
The respective measurement or evaluation or analysis results of the above-mentioned (2) to (4) are shown by mean±standard error in FIG. 3 to FIG. 7. […]

[4] = test system: C57BL/6J mice; experiment: Amount of neutral fat in muscle and palmitic acid in neutral fat in muscle of mice under motility limitation; format: in vivo, mouse; details: 0.2 wt % in feed, narrow cage, 28 days, vs motility limitation+lard ingestion group
From the text: as §1
C57BL/6J mice were grouped into 3 groups shown in Table 2 such that the body weight, grip strength, and lean body weight would be uniform, and one mouse was housed per cage and reared. As cages for rearing mice, a wide cage (width 220 mm×length 320 mm×height 165 mm) and a narrow cage (width 110 mm×length 160 mm×height 130 mm) were used. […]
After the completion of the above-mentioned grip strength measurement, muscles (gastrocnemius muscles) were collected from the mice in each group, and the amount of neutral fat in the muscle, which is one of the indicators of muscle quality, and the amount of palmitic acid in neutral fat in the muscle were measured.
Fat ingredient was extracted according to a chloroform/methanol method from the collected muscle, and the neutral fat content was measured by a colorimetric method at 600 nm, as well as the neutral fat was fractionated and collected by thin layer chromatography (TLC). […] The neutral fat fraction was extracted again by a chloroform/methanol method, and the composition of the fatty acid in the neutral fat was analyzed, and the amount of palmitic acid was measured. The composition of the fatty acid was analyzed by gas chromatography. […]

[5] = test system: Sprague-Dawley (SD) male rats; experiment: Muscle (tibialis anterior muscle) weight in rats fed a high-fat diet with exercise load; format: in vivo, rat; details: 0.2 wt % in 30 wt % fat feed plus exercise, 6th week; compared with exercise only group; FIG. 3
Procedure: as §2, §3
The exercise was performed using the left leg of the rat by applying a local resistance exercise load. A rat under isoflurane anesthesia was placed in an ankle exercise device for small animals (Bioresearch Center K.K.), a skin stimulation electrode was attached to the tibialis anterior muscle, and contraction was caused by electrical stimulation. At the same time, the tibialis anterior muscle was pulled in the direction opposite to the contraction direction, and an extension load was applied. The exercise load setting conditions are shown below.
(i) contraction (electric) load condition: 4 mA to 5 mA, 100 Hz, 1100 msec
(ii) extension load condition: angle of left leg joint was extended from 90° to 135° at rate=100 deg/sec […]

[6] = test system: Sprague-Dawley (SD) male rats; experiment: Amount of diacylglycerol and fatty acid composition in muscle diacylglycerol in rats fed a high-fat diet; format: in vivo, rat; details: 0.2 wt % in 30 wt % fat feed plus exercise, 6th week, vs high fat group p<0.01
Procedure: as §2, §3
The amount of diacylglycerol (DAG) in muscle, which is highly related to muscle insulin sensitivity, was analyzed, and the composition of fatty acid contained in DAG was analyzed.
The fat ingredient in the muscle collected during autopsy was extracted according to a chloroform/methanol method, and the DAG fraction was extracted using thin layer chromatography (TLC). […] DAG was quantified at 600 nm by a colorimetric method.
The DAG fraction after development was extracted by a chloroform/methanol method, and fatty acid in DAG was quantified. As fatty acids, 9 kinds of fatty acids (lauric acid, myristic acid, palmitoleic acid, palmitic acid, linolenic acid, linoleic acid, oleic acid, stearic acid, arachidonic acid) mainly contained in the living body were selected and analyzed using gas chromatography. […]

[7] = test system: insulin receptor substrate-1 (IRS-1); experiment: Muscle insulin sensitivity (IRS-1 serine phosphorylation activity, Western blotting) in rats fed a high-fat diet; format: in vivo, rat; details: 0.2 wt % in 30 wt % fat feed plus exercise, 6th week; vs high fat group p<0.01; FIG. 5
Procedure: as §2, §3
As an index of muscle insulin sensitivity, insulin receptor substrate-1 (IRS-1) serine phosphorylation activity was evaluated by a Western blotting (WB) method. […]
As the antibodies, anti-Phospho-IRS-1 (Ser307) antibody (Cell Signaling Technologies Inc.), and anti-total IRS-1 antibody (Cell Signaling Technologies Inc.) were used, the expression levels of Phospho-IRS-1 (Ser307) and total IRS-1 were quantified using Western blot-chemiluminescent imaging system (Fusion FX) (Vilber-Lourmat Inc.).
As an index of insulin sensitivity, the ratio of Phospho-IRS-1 (Ser307) expression level to total IRS-1 expression level [(Phospho-IRS-1 (Ser307))/(total IRS-1)] was determined. […]

[8] = added simultaneously with 0.5 mM FFA, FIG. 2

SMILES	insulin signal that declined due to FFA [1, 8]	grip strength [2]	muscle insulin signal increasing action compared with NAC ([1]; 100 μM vs NAC 5 mM, FIG. 2)	muscle insulin signal increasing action compared with NAC ([1]; 300 μM vs NAC 5 mM, FIG. 1)	decline in muscle insulin signal due to FFA (phosphorylation index) ([1]; 300 μM, added simultaneously with 0.5 mM FFA, 100 nM insulin stimulation, FIG. 1)	stride of walking (length and width) during walking [3]	amount of neutral fat in the muscle (gastrocnemius muscle) ([4]; FIG. 9)	amount of palmitic acid in the neutral fat in the muscle (gastrocnemius muscle) ([4]; FIG. 10)	muscle weight (tibialis anterior muscle, weight ratio to body weight) [5]	increase in the amount of DAG in skeletal muscle ([6]; FIG. 6)	amount of palmitic acid in muscle DAG ([6]; FIG. 7)	decline in muscle insulin sensitivity [(Phospho-IRS-1 (Ser307))/(total IRS-1)] [7]
CC(C)[C@H](NC(=O)CC[C@H](N)C(=O)O)C(=O)NCC(=O)O [γEVG, γ-L-glutamyl-L-valylglycine] (γGlu-Val-Gly-OH)	increase the insulin signal											
CC(C)[C@H](NC(=O)CC[C@H](N)C(=O)O)C(=O)O [γEV, γ-L-glutamyl-L-valine]		significantly (p<0.05) improved	superior to that of NAC	equal to or higher than that of NAC	recovered	suppressed to the same levels as in the normal group	significantly (p<0.1) small	significantly (p<0.1) small	increase in the muscle weight tended to be promoted	significantly suppressed	significantly lower than in the high fat group	significantly suppressed
N[C@@H](CCC(=O)N[C@@H](CS)C(=O)O)C(=O)O [γEC, γ-L-glutamyl-L-cysteine]	increase the insulin signal											
